Assay results taken from patent US20230302131A1, “MPC INHIBITION FOR PRODUCING T-CELLS WITH A MEMORY PHENOTYPE” (UNIVERSITÉ DE LAUSANNE, priority 2020, published 2023).

What was measured:
[1] = tested on: transferred OT1 cells in LM-OVA infected mice; test: In vivo Listeria-Ova infection model after adoptive transfer of pre-treated OT1 cells; parameters: species or system mouse
Excerpt: In order to evaluate whether this memory phenotype is maintained in vivo, 10^5 MPCi- or DMSO-treated OT1 cells were intravenously injected in healthy mice. Twenty-four hours after cell transfer, the mice were infected with a sub-lethal dose of ovalbumine-expressing Listeria monocytogenes (LM-OVA, 2000 CFU i.v.) (FIG. 1H). […] Consequently, 28 days after LM-OVA infection, during the memory phase of the immune reaction, the proportion of central memory T cells (CD44+CD62L+) among the transferred cells in the blood was larger in mice that received cells pre-treated with MPCi (FIG. 1K). Importantly, the effects of the MPC inhibitor were target specific, since an increase in memory T cell differentiation could also be observed when MPC1 KO T cells were transferred in this Listeria model (FIG. 1L-N). In summary, MPCi-treated cells display a consistent memory phenotype upon in vivo transfer in an infection model.
Activated CD45.1+OT-1 splenocytes were culture in vitro for 7 days as described above, collected and purified on a Ficoll gradient, allowing to separate dead and live splenocytes. Live splenocytes were counted with Trypan blue stain 0.4%. 100′000 live splenocytes were transferred into CD45.2+ host mice by tail vein injection.
Recombinant bacteria Listeria monocytogenes deficient for actA and expressing the ovalbumin (Ova) peptide SIINFEKL were expanded and tittered. Optical density measured with a spectrophotometer was used to determine bacterial concentration and 2000 CFU were administered in each mouse by tail vein injection, […] after adoptive cell transfer. Blood samples were collected and processed for surface markers and cytokine production analyses.
Antibody panels for blood analyses contained: CD8-PE-texas-Red, CD45.1-Pacific blue, CD45.2-FITC, CD127-PE, KLRG1-PE-Cy7, CD62L-APC, CD44-APC-Cy7, and CD27-PerCP-Cy5.5.

[2] = tested on: OT1 splenocytes; test: Metabolomics, acetyl-CoA and 13C tracing by mass spectrometry; type: cell-based, mouse
Excerpt: Mechanistically, it was hypothesized by the inventors that epigenetic processes might underlie the observed long-term memory phenotype and anti-tumor activity upon metabolic intervention with MPCi. […] Since acetyl-CoA is the acetyl donor for the acetylation of proteins, amongst which also histones, histone post-translational modifications were examined that are known to make chromatin accessible to transcription factors, a characteristic of memory T cells. […] These are marks known to open chromatin and make it accessible for transcription factor docking. […] Amongst those were Sell, Tcf7 and Ccr7, thereby correlating accessible chromatin with increased mRNA copies (FIG. 3E and see above).
OT1 splenocytes were activated and cultured as described above. After 66 hours, the cells were collected and the medium was replaced with glucose- and glutamine-free RPMI, supplemented with 10% dialyzed FBS, 1% P/S, 10 mM HEPES, 50 μM β-mercaptoethanol and either 11 mM normal glucose or 11 mM U-^13C6-glucose (Cambridge Isotopes) with respectively 4 mM ^13C5-glutamine (Cambridge Isotopes or 4 mM normal L-glutamine. After 6 hours labelling at 37° C., cells were collected and lysed in Methanol. Next Chloroform was added, and after centrifugation, the fraction containing the polar metabolites was collected and dried on a SpeedVac. Samples were then resuspended and loaded on a mass spectrometer. The spectra of AcetylCoA were analyzed with the M+0 representing the unlabeled fraction, and the M+2 representing the Acetyl group derived from the ^13C-labelled substrate (glucose or glutamine).

[3] = tested on: human CD8 T cells from umbilical cord blood; test: Human cord blood PBMC culture with anti-CD3/CD28 beads, CD62L in CD8 T cells by flow cytometry; type: cell-based; conditions: 25 μM; day 11; 3 different donors; versus DMSO
Procedure: To most closely mimic the experimental conditions that were successful by using naïve mouse OT1 CD8 T cells, it was tested whether the MPCi on the most naïve human CD8+ T cells can be obtained, i.e. from umbilical cord blood (FIG. 1E).
Peripheral blood mononuclear cells were isolated from fresh umbilical vein cord blood on a Percoll gradient. PBMCs were then cultured in RPMI supplemented with 10% human serum. 10^4 PBMC's were seeded per well in a round bottom 96-well plate and activated with anti-CD3/CD28 beads at a 1:2 cell:bead ratio and 300 U/ml rhIL-2, in the presence of 25 μM UK5099 or DMSO. Cells were regularly split and CD62L expression was determined by flow cytometry on day 11.

[4] = tested on: OT1 T cells; test: RNA sequencing of OT1 T cells; type: cell-based, mouse; conditions: day 7; compared to DMSO
Procedure: To evaluate the effects of MPC inhibition on T cell differentiation, OT1 splenocytes were cultured in the presence of 1 μg/ml ovalbumin-derived N4 (SIINFEKL) peptide, 100 IU/ml recombinant human IL-2 (rhIL-2) and the MPC inhibitor (MPCi) UK5099 at 75 μM or control DMSO for 3 days. The inhibitor or DMSO was then washed away and the cells were cultured for 4 more days in the presence of 100 IU/ml IL-2 and 10 ng/ml rhIL-7 (FIG. 1A). […] Thus, the increase in the memory markers upon MPCi in vitro treatment occurs at the transcriptional level.
[…] Purity-filtered reads were adapters and quality trimmed with Cutadapt (v. 1.8, Martin 2011). Reads matching to ribosomal RNA sequences were removed with fastq_screen (v. 0.9.3). Remaining reads were further filtered for low complexity with reaper (v. 15-065, Davis et al. 2013). Reads were aligned against Mus musculus.GRCm38.86 genome using STAR (v. 2.5.2b, Dobin et al. 2013). The number of read counts per gene locus was summarized with htseq-count (v. 0.6.1, Anders et al. 2014) using Mus musculus.GRCm38.86gene annotation. Quality of the RNA-seq data alignment was assessed using RSeQC (v. 2.3.7, Wang et al. 2012). Reads were also aligned to the Mus musculus.GRCm38.86 transcriptome using STAR (v. 2.5.2b, Dobin et al. 2013) and the estimation of the isoforms abundance was computed using RSEM (v. 1.2.31, Li and Dewey 2011). Statistical analysis was performed for genes in R (R version 3.4.0). An analysis with all genes, including mitochondria, was done. Genes with less than one count per million in all samples were filtered out. Library sizes were scaled using TMM normalization (EdgeR package version 3.14.0; Robinson et al. 2010) and log-transformed with EdgeR cpm function.
Differential expression was computed with limma (Ritchie et al. 2015) by fitting the samples into a linear model using all conditions as factors and correcting for batch effect by introducing factors for the replicates (=paired analysis).

N#CC(=Cc1cn(-c2ccccc2)c2ccccc12)C(=O)O [UK5099, 2-cyano-3-(1-phenyl-1H-indol-3-yl)-2-propenoic acid]
proportion of central memory T cells (CD44+CD62L+) among the transferred cells in the blood ([1]; 28 days after LM-OVA infection, vs DMSO): larger
frequency of memory precursor cells (CD127+, KLRG1low) ([1]; day 7 post-LM-OVA, blood, pre-treated OT1 cells vs DMSO): significantly increased
frequency of the transferred cells in blood ([1]; weekly bleeding, peak of immune response and contraction phase, cells pre-treated in vitro): did not reveal significant differences
13C-glutamine incorporation into acetyl-CoA ([2]; 6 hours labelling): incorporated dramatically more
13C-labeled glucose incorporation into acetyl-CoA ([2]; 6 hours labelling): incorporating less
total acetyl-CoA levels ([2]; mass spectrometry, vs DMSO): strong increase
CD62L expression in human cord blood CD8 T cells [3]: significant increase
Ccr7 expression, RNA sequencing [4]: increased
Sell (CD62L) expression, RNA sequencing [4]: at least 1.5 fold
Tcf7 expression, RNA sequencing [4]: increased
